Tested on: patients with postpartum depression (PPD)
Experiment: Clinical trial of inhaled 5-MeO-DMT in postpartum depression (MADRS, BPRS, BIMF, PES, safety)
Description: The single-arm, open-label clinical trial will involve 15 adult female patients with clinically diagnosed postpartum depression (PPD).
The second dose (12 mg) will only be administered if: • a. […] The 6 mg dose was safe and well-tolerated according to the investigator, • c. Any psychoactive effects (PsE) of the prior dose have subsided, and • d. Pre-dose vital parameters and forced expiratory volume in one second (FEV1) are in normal range, or if outside of the normal range, are not clinically significant according to the investigator. • 3. Similarly, a third dose (18 mg) will only be administered if: • a. […] The 12 mg dose was safe and well-tolerated according to the investigator, and • c. Any PsE of the prior dose have subsided, and • d. Pre-dose vital parameters and forced expiratory volume in one second (FEV1) are in normal range, or if outside of the normal range, are not clinically significant according to the investigator.
The patients will be assessed for a peak psychedelic experience (based on a patient-scored visual analogue scale, the PE scale), sedation, and other endpoints after dosing. Follow-up visits are planned for Day 1, and Day 7 after the dosing day.
The following criteria must be met by all patients considered for clinical trial participation: • 1. Is female and in the age range between 18 and 45 years (inclusive) at screening. • 2. Has a body mass index (BMI) in the range of 18.5 and 35 kg/m^2 (inclusive) at screening. • 3. Meets the trial criteria for PPD as assessed by a trial psychiatrist or registered psychologist: • a. Diagnosis of Major Depressive Disorder without psychotic features, confirmed by the Mini-International Neuropsychiatric Interview (MINI), with peri-partum onset that began no earlier than gestation and no later than the first 4 weeks postpartum. • b. Has a Montgomery-Åsberg Depression Rating Scale (MADRS) total score of equal to or greater than 28 at screening and pre-dose on Day 0. • 6. […] Patients must have a negative pregnancy test at screening and on the pre-test day (Day −1). • 5. Is willing to delay start of other antidepressant or anxiety medication until after the end of the trial at Day 7 and agrees to keep any psychotherapy unchanged during the trial.
A potential patient who meets any of the following key exclusion criteria will be excluded from participation in this trial: • 1. Has, based on history, psychiatric assessment, and evaluation of the MINI, a current or prior diagnosis of bipolar disorder, a manic or hypomanic episode, a psychotic disorder, Major Depressive Disorder (MDD) or other mood disorder with psychotic features, obsessive compulsive disorder, post-traumatic stress disorder (PTSD), autism spectrum disorder, borderline personality disorder, schizophrenia, delusional disorder, paranoid personality disorder, schizoaffective disorder, clinically significant intellectual disability, or any other psychiatric comorbidity that renders the patient unsuitable for the trial according to the investigator's judgment. • 2. Has one or more first or second degree relatives with a current or previously diagnosed bipolar disorder, psychotic disorder or other mood disorder (including MDD) with psychotic features. • 3. Is in the judgement of a trial psychiatrist or registered psychologist, at significant risk for suicide based on history, psychiatric assessment, and evaluation of suicidal ideation and suicidal behaviour based on the Columbia-Suicide Severity Rating Scale (C-SSRS). • 4. Has taken anti-depressive medication within 14 days or 5 half-lives (whichever is longer) prior to dosing (exception: within the last 5 weeks in the case of fluoxetine). • 5.

[1] = PPD n=1, IDR 6+12 mg inhaled, 2 hr, baseline 0
[2] = PPD n=1, IDR 6+12 mg inhaled, 2 hr, baseline 3
[3] = PPD n=1, IDR 6+12 mg inhaled, 2 hr, baseline 4
[4] = PPD n=1, IDR 6+12 mg inhaled, 2 hr, baseline 5
[5] = PPD n=1, IDR 6+12 mg inhaled, Day 7, Day 0 score 5
[6] = PPD n=1, IDR 6+12 mg inhaled, Day 7, Day 0 score 6
[7] = PPD n=1, IDR 6+12 mg inhaled, Day 7 vs Day 0
[8] = PPD n=1, IDR 6+12 mg inhaled, day 1, baseline 0
[9] = PPD n=1, IDR 6+12 mg inhaled, day 1, baseline 1
[10] = PPD n=1, IDR 6+12 mg inhaled, day 1, baseline 2
[11] = PPD n=1, IDR 6+12 mg inhaled, day 1, baseline 3
[12] = PPD n=1, IDR 6+12 mg inhaled, day 1, baseline 4
[13] = PPD n=1, IDR 6+12 mg inhaled, day 1, baseline 5

## COc1ccc2[nH]cc(CCN(C)C)c2c1 [5-MeO-DMT]
PPD n=1
  tolerability of the inhalation procedure: well tolerated with no inhalation-related adverse events
PPD n=1, IDR 6+12 mg inhaled
  MADRS remission criteria (MADRS total score equal or less than 10): fulfilled
  MADRS response criteria (at least 50% improvement from baseline): fulfilled
  reported adverse events (cramping left abdominal pain and headache, Day 0): mild, short-lasting and resolved spontaneously
  time to clinical response after administration: ≤ 2 h
PPD n=1, IDR 6+12 mg inhaled given on one day
  durability of clinical response: sustained over the 7-day follow-up period
[1]
  MADRS Concentration Difficulties improvement: 0
  MADRS Concentration Difficulties score: 0
  MADRS Reduced appetite improvement: 0
  MADRS Reduced appetite score: 0
  MADRS Suicidal Thoughts improvement: 0
  MADRS Suicidal Thoughts score: 0
[2]
  MADRS Inability to Feel improvement: 3
  MADRS Inability to Feel score: 0
  MADRS Lassitude improvement: 3
  MADRS Lassitude score: 0
[3]
  MADRS Pessimistic Thoughts improvement: 4
  MADRS Pessimistic Thoughts score: 0
  MADRS Reported sadness improvement: 4
  MADRS Reported sadness score: 0
[4]
  MADRS Apparent sadness improvement: 5
  MADRS Apparent sadness score: 0
  MADRS Inner Tension improvement: 5
  MADRS Inner Tension score: 0
  MADRS Reduced Sleep improvement: 0
  MADRS Reduced Sleep score: 5
PPD n=1, IDR 6+12 mg inhaled, Day 7, Day 0 score 2
  BIMF item 18 score: Anxiety or worry often interferes with my mothering ability: 5
PPD n=1, IDR 6+12 mg inhaled, Day 7, Day 0 score 3
  BIMF item 16 score: I worry about how other people judge me (as a mother): 5
PPD n=1, IDR 6+12 mg inhaled, Day 7, Day 0 score 4
  BIMF item 13 score: I am taking good care of my physical needs (eating, showering, etc): 5
[5]
  BIMF item 10 score: I trust my own feelings (instincts) when it comes to taking care of my baby: 6
  BIMF item 17 score: I am able to take care of my baby and my other responsibilities: 5
[6]
  BIMF item 3 score: I am comfortable with the way I've chosen to feed my baby (either bottle or breast, or both): 6
  BIMF item 6 score: There are people in my life that I can trust to care for my baby when I need a break: 6
  BIMF item 12 score: I am taking good care of my baby's physical needs (feedings, changing diapers, doctor's appointments): 6
  BIMF item 14 score: I make good decisions about my baby's health and well being: 6
[7]
  BIMF functional domain Adjustment Δ (Day 7): 1
  BIMF functional domain Infant Care Δ (Day 7): 0
  BIMF functional domain Management Δ (Day 7): 5
  BIMF functional domain Mother-Child Interaction Δ (Day 7): 2
  BIMF functional domain Psychological Well-being Δ (Day 7): 9
  BIMF functional domain Self Care Δ (Day 7): 4
  BIMF functional domain Social Support Δ (Day 7): 1
  BIMF item 1 Δ (Day 7): I am a good mother: 0
  BIMF item 2 Δ (Day 7): I feel rested: 2
  BIMF item 3 Δ (Day 7): I am comfortable with the way I've chosen to feed my baby (either bottle or breast, or both): 0
  BIMF item 4 Δ (Day 7): My baby and I understand each other: 0
  BIMF item 5 Δ (Day 7): I am able to relax and enjoy time with my baby: 1
  BIMF item 6 Δ (Day 7): There are people in my life that I can trust to care for my baby when I need a break: 0
  BIMF item 8 Δ (Day 7): I am getting enough adult interaction: 0
  BIMF item 9 Δ (Day 7): I am getting enough encouragement from other people: 1
  BIMF item 10 Δ (Day 7): I trust my own feelings (instincts) when it comes to taking care of my baby: 1
  BIMF item 11 Δ (Day 7): I take a little time each week to do something for myself: 1
  BIMF item 12 Δ (Day 7): I am taking good care of my baby's physical needs (feedings, changing diapers, doctor's appointments): 0
  BIMF item 13 Δ (Day 7): I am taking good care of my physical needs (eating, showering, etc): 1
  BIMF item 14 Δ (Day 7): I make good decisions about my baby's health and well being: 0
  BIMF item 15 Δ (Day 7): My baby and I are getting into a routine: 1
  BIMF item 16 Δ (Day 7): I worry about how other people judge me (as a mother): 2
  BIMF item 17 Δ (Day 7): I am able to take care of my baby and my other responsibilities: 0
  BIMF item 18 Δ (Day 7): Anxiety or worry often interferes with my mothering ability: 3
  BIMF item 19 Δ (Day 7): As time goes on, I am getting better at taking care of my baby: 1
  BIMF item 20 Δ (Day 7): I am satisfied with the job I am doing as a new mother: −1
[8]
  MADRS Concentration Difficulties improvement: 0
  MADRS Concentration Difficulties score: 0
  MADRS Reduced appetite improvement: 0
  MADRS Reduced appetite score: 0
  MADRS Suicidal Thoughts improvement: 0
  MADRS Suicidal Thoughts score: 0
[9]
  BPRS Blunted Affect score: 1
  BPRS Blunted affect improvement: 0
  BPRS Conceptual disorganization improvement: 0
  BPRS Conceptual disorganization score: 1
  BPRS Disorientation improvement: 0
  BPRS Disorientation score: 1
  BPRS Grandiosity improvement: 0
  BPRS Grandiosity score: 1
  BPRS Hallucinatory behaviour improvement: 0
  BPRS Hallucinatory behaviour score: 1
  BPRS Hostility improvement: 0
  BPRS Hostility score: 1
  BPRS Mannerisms and Posturing improvement: 0
  BPRS Mannerisms and Posturing score: 1
  BPRS Motor retardation improvement: 0
  BPRS Motor retardation score: 1
  BPRS Suspiciousness improvement: 0
  BPRS Suspiciousness score: 1
  BPRS Uncooperativeness improvement: 0
  BPRS Uncooperativeness score: 1
  BPRS Unusual Thought Content improvement: 0
  BPRS Unusual Thought Content score: 1
[10]
  BPRS Excitement improvement: 1
  BPRS Excitement score: 1
[11]
  MADRS Inability to Feel improvement: 3
  MADRS Inability to Feel score: 0
  MADRS Lassitude improvement: 3
[12]
  MADRS Pessimistic Thoughts improvement: 4
  MADRS Pessimistic Thoughts score: 0
  MADRS Reported sadness improvement: 4
  MADRS Reported sadness score: 0
[13]
  BPRS Emotional Withdrawal score: 1
  BPRS Emotional withdrawal improvement: 4
  MADRS Apparent sadness improvement: 5
  MADRS Apparent sadness score: 0
  MADRS Inner Tension improvement: 5
  MADRS Inner Tension score: 0
